Results reported in patent publication US20180000085A1, “USE OF PICOLINAMIDE COMPOUNDS WITH FUNGICIDAL ACTIVITY” (DOW AGROSCIENCES LLC, priority 2014, published 2018).

Tests used:
Type in all cases: in vivo
Puccinia triticina = test: Wheat brown rust (PUCCRT) disease control on wheat seedlings; parameters: key to PUCCRT 3DC, HV activity at 100 ppm (% control rating) / PUCCRT disease control, 3DC / PUCCRT 1DP disease control rating, HV activity / PUCCRT 3DC disease control rating, HV activity / PUCCRT 3DC, LV activity at 125.1 g/H (% Control rating) / PUCCRT 1DP, LV activity at 125.1 g/H (% Control rating) / PUCCRT 3DC disease control rating, LV activity at 125.1 g/H / PUCCRT 1DP disease control rating, LV activity at 125.1 g/H / PUCCRT 3DC disease control rating, HV activity at 100 ppm / PUCCRT 1DP disease control rating, HV activity at 100 ppm / HV activity at 100 ppm PUCCRT 3DC (disease control rating) / LV activity at 125.1 g/H PUCCRT 1DP (disease control rating) / LV activity at 125.1 g/H PUCCRT 3DC (disease control rating): A: > 80; B: ≤ 80; C: Not Tested; D: No Activity Observed in the Reported Assay; conditions: for PUCCRT 1DP, LV activity at 125.1 g/H (% Control rating) / PUCCRT 3DC, LV activity at 125.1 g/H (% Control rating) / PUCCRT 1DP disease control rating, LV activity at 125.1 g/H / PUCCRT 3DC disease control rating, LV activity at 125.1 g/H: low volume application; for PUCCRT 1DP disease control rating, LV activity at 125.1 g/H: 1 day protectant; for PUCCRT 3DC disease control rating, LV activity at 125.1 g/H: 3 day curative
Cercospora beticola = test: Leaf spot of sugar beets (CERCBE) disease control; conditions: 100 ppm; 1 Day Protectant; sugar beet
Protocol: All fungicides were evaluated using the aforementioned method for their activity vs. all target diseases, unless stated otherwise. Wheat leaf blotch and brown rust activity were also evaluated using track spray applications, in which case the fungicides were formulated as EC formulations, containing 0.1% Trycol 5941 in the spray solutions. Wheat plants (variety Yuma) were grown from seed in a greenhouse in 50% mineral soil/50% soil-less Metro mix until the first leaf was fully emerged, with 7-10 seedlings per pot. These plants were inoculated with an aqueous spore suspension of Zymoseptoria tritici either prior to or after fungicide treatments. After inoculation the plants were kept in 100% relative humidity (one day in a dark dew chamber followed by two to three days in a lighted dew chamber at 20° C.) to permit spores to germinate and infect the leaf. The plants were then transferred to a greenhouse set at 20° C. for disease to develop. When disease symptoms were fully expressed on the 1st leaves of untreated plants, infection levels were assessed on a scale of 0 to 100 percent disease severity. Percent disease control was calculated using the ratio of disease severity on treated plants relative to untreated plants. Example F: Evaluation of Fungicidal Activity: Leaf Spot of Sugar Beets (Cercospora beticola; Bayer Code CERCBE) Sugar beet plants (variety HH88) were grown in soil-less Metro mix and trimmed regularly to maintain a uniform plant size prior to test. Plants were inoculated with a spore suspension 24 hr after fungicide treatments. Inoculated plants were kept in a dew chamber at 22° C. for 48 hr then incubated in a greenhouse set at 24° C. under a clear plastic hood with bottom ventilation until disease symptoms were fully expressed. Fungicide formulation, application and disease assessment on the sprayed leaves followed the procedures as described in the Example A.

Phakopsora pachyrhizi = test: Asian soybean rust (PHAKPA) disease control; parameters: key: A: > 80; B: ≤ 80; C: Not Tested; D: No Activity Observed in the Reported Assay; conditions: 25 ppm; for PHAKPA disease control, 1DP: 1 Day Protectant; for PHAKPA disease control, 3DC: 3 Day Curative
Alternaria solani = test: Tomato early blight (ALTESO) disease control; parameters: key: A: > 80; B: ≤ 80; C: Not Tested; D: No Activity Observed in the Reported Assay; conditions: 100 ppm, 1 Day Protectant
Protocol: All fungicides were evaluated using the aforementioned method for their activity vs. all target diseases, unless stated otherwise. Wheat leaf blotch and brown rust activity were also evaluated using track spray applications, in which case the fungicides were formulated as EC formulations, containing 0.1% Trycol 5941 in the spray solutions. Wheat plants (variety Yuma) were grown from seed in a greenhouse in 50% mineral soil/50% soil-less Metro mix until the first leaf was fully emerged, with 7-10 seedlings per pot. These plants were inoculated with an aqueous spore suspension of Zymoseptoria tritici either prior to or after fungicide treatments. After inoculation the plants were kept in 100% relative humidity (one day in a dark dew chamber followed by two to three days in a lighted dew chamber at 20° C.) to permit spores to germinate and infect the leaf. The plants were then transferred to a greenhouse set at 20° C. for disease to develop. When disease symptoms were fully expressed on the 1st leaves of untreated plants, infection levels were assessed on a scale of 0 to 100 percent disease severity. Percent disease control was calculated using the ratio of disease severity on treated plants relative to untreated plants. Example J: Evaluation of Fungicidal Activity: Tomato Early Blight (Alternaria solani; Bayer Code […]) Tomato plants (variety Outdoor Girl) were propagated in soil-less Metro mix, with each pot having one plant, and used when 12 to 14 days old. Test plants were inoculated with an aqueous spore suspension of Alternaria solani 24 hr after fungicide treatments. After inoculation the plants were kept in a dew room at 22° C. with 100% relative humidity for 48 h to permit spores to germinate and infect the leaf. The plants were then transferred to a growth room at 22° C. for disease to develop. Fungicide formulation, application and disease assessment on the sprayed leaves followed the procedures as described in the Example A.

Compound | PUCCRT 1DP, LV activity at 125.1 g/H (% Control rating) (Puccinia triticina; 1 Day Protectant) | PUCCRT 3DC, LV activity at 125.1 g/H (% Control rating) (Puccinia triticina; 3 Day Curative) | CERCBE disease control, 1DP (Cercospora beticola) | PHAKPA disease control, 1DP (Phakopsora pachyrhizi) | PHAKPA disease control, 3DC (Phakopsora pachyrhizi) | ALTESO disease control, 1DP (Alternaria solani) | PUCCRT 1DP disease control rating, HV activity (Puccinia triticina; HV application at 100 ppm, 1 Day Protectant, wheat brown rust) | PUCCRT 3DC disease control rating, HV activity (Puccinia triticina; HV application at 100 ppm, 3 Day Curative, wheat brown rust) | PUCCRT 1DP disease control rating, LV activity (Puccinia triticina; Low volume application at 125.1 g/H, 1 Day Protectant, wheat brown rust) | PUCCRT 3DC disease control rating, LV activity (Puccinia triticina; Low volume application at 125.1 g/H, 3 Day Curative, wheat brown rust) | PUCCRT 1DP disease control rating, LV activity at 125.1 g/H (Puccinia triticina) | PUCCRT 3DC disease control rating, LV activity at 125.1 g/H (Puccinia triticina)
COc1ccnc(C(=O)N[C@H](C)C(=O)O[C@H](C)[C@@H](Oc2ccccc2)C(C)C)c1OCOC(C)=O [Cmpd 548] | D | D | B (≤ 80) | B (≤ 80) | D | B (≤ 80) | – | – | – | – | – | –
CCCOC(CC)C(Oc1ccccc1)C(C)OC(=O)C(C)NC(=O)c1nccc(OC)c1OCOC(C)=O (stereo not drawn) [Cmpd 446] | – | – | B (≤ 80) | A (> 80) | B (≤ 80) | D | A (> 80) | A (> 80) | A (> 80) | A (> 80) | – | –
COc1ccnc(C(=O)N[C@H](C)C(=O)O[C@H](C)[C@@H](Oc2ccccc2)c2ccccc2)c1OCOC(C)=O [Cmpd 549] | D | D | B (≤ 80) | D | D | B (≤ 80) | – | – | – | – | – | –
COc1ccnc(C(=O)N[C@@H](C)C(=O)O[C@@H](C)[C@H](Oc2ccccc2)C2CCCC2)c1OCOC(C)=O [Cmpd 556] | A (> 80) | A (> 80) | A (> 80) | A (> 80) | B (≤ 80) | B (≤ 80) | – | – | – | – | – | –
CC[C@@H](CCOC)[C@@H](Oc1ccccc1)[C@H](C)OC(=O)[C@H](C)NC(=O)c1nccc(OC)c1OC(C)=O [Cmpd 482] | A (> 80) | A (> 80) | A (> 80) | – | – | B (≤ 80) | – | – | – | – | – | –
CCC(C)C(Oc1ccccc1)C(C)OC(=O)C(C)NC(=O)c1nccc(OC)c1OC(C)=O (stereo not drawn) [Cmpd 691] | – | – | B (≤ 80) | A (> 80) | B (≤ 80) | D | – | – | – | – | A (> 80) | A (> 80)
COc1ccnc(C(=O)N[C@H](C)C(=O)O[C@H](C)[C@H](Oc2ccccc2)C(C)C)c1OCOC(C)=O [Cmpd 560] | D | D | B (≤ 80) | B (≤ 80) | D | B (≤ 80) | – | – | – | – | – | –
CC[C@@H](CCOC)[C@@H](Oc1ccccc1)[C@H](C)OC(=O)[C@H](C)NC(=O)c1nccc(OC)c1OCOC(C)=O [Cmpd 476] | A (> 80) | A (> 80) | B (≤ 80) | A (> 80) | B (≤ 80) | B (≤ 80) | – | – | – | – | – | –
CCC(C)C(Oc1ccccc1)C(C)OC(=O)C(C)NC(=O)c1nccc(OC)c1OCOC(C)=O (stereo not drawn) [Cmpd 692] | – | – | A (> 80) | A (> 80) | B (≤ 80) | B (≤ 80) | – | – | – | – | A (> 80) | A (> 80)
